In patent US20260224557A1, “NRF2 ACTIVATOR” (Ivy Cosmetics Co., Ltd., priority 2023, published 2026):

Tested on: Nrf2
Test: ARE (Antioxidant Response Element)-luciferase reporter assay in ARE-luciferase reporter-stably-expressing HaCaT cell line
Assay type: cell-based
Conditions: HaCaT ARE-luciferase reporter cells, 24 hours
Procedure: The Nrf2-activating action of conophylline (crystal) which was isolated and purified from Ervatamia microphylla, which is a plant of the Apocynaceae, by the method described in JP4696303B was evaluated by ARE (Antioxidant Response Element)-luciferase reporter assay, which is known as a monitoring system for the Nrf2 antioxidant pathway. Specifically, a plasmid was obtained by inserting a polynucleotide having a sequence in which ARE sequence was repeated twice ([…]: SEQ ID NO: 1) into the multiple cloning site of pNL2.2 [NlucP/Hygro] Vector (Promega Corporation), which is a vector for luciferase reporter assay, and the plasmid was introduced into HaCaT cells (DKFZ) using Cell Line Nucleofector Kit V (Lonza) by electroporation. After 24 hours, by adding hygromycin at a final concentration of 600 μg/mL and selecting drug-resistant cells, an ARE-luciferase reporter-stably-expressing HaCaT cell line having hygromycin resistance was established. […] After 24 hours, the luciferase activities were measured using Nano-Glo Luciferase Assay System (Promega Corporation) according to the protocol, and thus the Nrf2-activating action of conophylline was evaluated.

Compound	luciferase activity when Nrf2 inhibitor ML-385 was added together with conophylline (ML-385 20 μM added together with conophylline 1 μg/mL)	luciferase activity (Nrf2-activating action), relative to DMSO control regarded as 1 (conophylline at various final concentrations, FIG. 1)
Cc1ccccc1C(=O)N1CCc2cc(-c3nc(NC(=O)Cc4ccc5c(c4)OCO5)sc3C)ccc21 [ML-385]	decreased considerably	–
CC[C@@]12CC(C(=O)OC)=C3Nc4cc5c(cc4[C@@]34CCN(C[C@H]3O[C@H]31)[C@@H]24)[C@@H]1[C@H](O5)[C@@H](O)[C@@]2(CC)CC(C(=O)OC)=C3Nc4c(cc(O)c(OC)c4OC)[C@@]34CCN1[C@@H]24 [conophylline]	–	enhanced the luciferase activity in a concentration-dependent manner
